Assay results: patent US20240190838A1, “LZK-TARGETING DEGRADERS AND METHODS OF USE” (The U.S.A., as represented by the Secretary, Department of …, priority 2020, published 2024)

Assay: Parallel artificial membrane permeability assay (PAMPA)
Type: in vitro ADME
Conditions: Table 7

Structure (SMILES) | Ratio of mean permeability (×10^4 cm/s) related to low permeability control (atenolol)
Cc1ncsc1-c1ccc([C@H](C)NC(=O)[C@@H]2C[C@@H](O)CN2C(=O)[C@@H](NC(=O)CCC(=O)N2CCC(c3cc(Nc4cc(C#N)ccn4)nc(N4CCC(F)(F)C4)c3)CC2)C(C)(C)C)cc1 [Compound 14] | −0.51
Cc1ncsc1-c1ccc([C@H](C)NC(=O)[C@@H]2C[C@@H](O)CN2C(=O)[C@@H](NCc2ccc(C(=O)N3CCC(c4cc(Nc5cc(C#N)ccn5)nc(N5CCC(F)(F)C5)c4)CC3)cc2)C(C)(C)C)cc1 [Compound 13] | 1.31
Cc1ncsc1-c1ccc([C@H](C)NC(=O)[C@@H]2C[C@@H](O)CN2C(=O)[C@@H](NC(=O)[C@H](CCC(=O)N2CCC(c3cc(Nc4cc(C#N)ccn4)nc(N4CCC(F)(F)C4)c3)CC2)NC(=O)C(N)CCCNC(=N)N)C(C)(C)C)cc1 (stereo partly shown) [Compound 29] | 6.74
Cc1ncsc1-c1ccc([C@H](C)NC(=O)[C@@H]2C[C@@H](O)CN2C(=O)[C@@H](NC(=O)[C@H]2CC[C@@H]2C(=O)N2CCC(c3cc(Nc4cc(C#N)ccn4)nc(N4CCC(F)(F)C4)c3)CC2)C(C)(C)C)cc1 (single isomer, unassigned) [Compound 25] | 0.43
Cc1ncsc1-c1ccc([C@H](C)NC(=O)[C@@H]2C[C@@H](O)CN2C(=O)[C@@H](NCc2cccc(CN3CCC(c4cc(Nc5cc(C#N)ccn5)nc(N5CCC(F)(F)C5)c4)CC3)n2)C(C)(C)C)cc1 [Compound 9] | −0.46
Cc1ncsc1-c1ccc([C@H](C)NC(=O)[C@@H]2C[C@@H](O)CN2C(=O)[C@@H](NC(=O)[C@H]2C[C@H](C(=O)N3CCC(c4cc(Nc5cc(C#N)ccn5)nc(N5CCC(F)(F)C5)c4)CC3)C2)C(C)(C)C)cc1 [Compound 24] | 6.74
Cc1ncsc1-c1ccc([C@H](C)NC(=O)[C@@H]2C[C@@H](O)CN2C(=O)[C@@H](NC(=O)[C@H]2CC[C@H]2C(=O)N2CCC(c3cc(Nc4cc(C#N)ccn4)nc(N4CCC(F)(F)C4)c3)CC2)C(C)(C)C)cc1 (single isomer, unassigned) [Compound 26] | 1.47
Cc1ncsc1-c1ccc([C@H](C)NC(=O)[C@@H]2C[C@@H](O)CN2C(=O)[C@@H](NC(=O)c2ccc(C(=O)N3CCC(c4cc(Nc5cc(C#N)ccn5)nc(N5CCC(F)(F)C5)c4)CC3)nn2)C(C)(C)C)cc1 [Compound 21] | −0.11
Cc1ncsc1-c1ccc([C@H](C)NC(=O)[C@@H]2C[C@@H](O)CN2C(=O)[C@@H](NC(=O)c2cc(C(=O)N3CCC(c4cc(Nc5cc(C#N)ccn5)nc(N5CCC(F)(F)C5)c4)CC3)ncn2)C(C)(C)C)cc1 [Compound 20] | −0.01
Cc1ncsc1-c1ccc([C@H](C)NC(=O)[C@@H]2C[C@@H](O)CN2C(=O)[C@@H](NC(=O)c2ccc(C(=O)N3CCC(c4cc(Nc5cc(C#N)ccn5)nc(N5CCC(F)(F)C5)c4)CC3)cc2)C(C)(C)C)cc1 [Compound 15] | −0.14
Cc1ncsc1-c1ccc([C@H](C)NC(=O)[C@@H]2C[C@@H](O)CN2C(=O)[C@@H](NC(=O)N2CCC(c3cc(Nc4cc(C#N)ccn4)nc(N4CCC(F)(F)C4)c3)CC2)C(C)(C)C)cc1 [Compound 27] | 0.01
Cc1ncsc1-c1ccc([C@H](C)NC(=O)[C@@H]2C[C@@H](O)CN2C(=O)[C@@H](NCC(=O)N2CCC(c3cc(Nc4cc(C#N)ccn4)nc(N4CCC(F)(F)C4)c3)CC2)C(C)(C)C)cc1 [Compound 28] | −1.86
Cc1ncsc1-c1ccc([C@H](C)NC(=O)[C@@H]2C[C@@H](O)CN2C(=O)[C@@H](NC(=O)CCCCC(=O)N2CCC(c3cc(Nc4cc(C#N)ccn4)nc(N4CCC(F)(F)C4)c3)CC2)C(C)(C)C)cc1 [Compound 12] | 0.61
